Source: PubChem BioAssay (NCI)
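48-hour exposure; five concentrations; linearly interpolated endpoints. Definition used: TGI = concentration required for complete inhibition of growth.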

Assays:
Experiment in all cases: growth of human tumour cells (NCI), 48 h
SNB-19 CNS = tested on: SNB-19 CNS
HT29 colon = tested on: HT29 colon
A498 renal = tested on: A498 renal
TK-10 renal = tested on: TK-10 renal
LOX IMVI melanoma = tested on: LOX IMVI melanoma
NCI-H226 lung = tested on: NCI-H226 lung
HCT-15 colon = tested on: HCT-15 colon
COLO 205 colon = tested on: COLO 205 colon
A549 NSCLC = tested on: A549 NSCLC
K-562 leukemia = tested on: K-562 leukemia
SF-295 CNS = tested on: SF-295 CNS
NCI-H522 lung = tested on: NCI-H522 lung
NCI-H23 lung = tested on: NCI-H23 lung
786-0 renal = tested on: 786-0 renal
T-47D breast = tested on: T-47D breast
HL-60(TB) leukemia = tested on: HL-60(TB) leukemia
IGROV1 ovarian = tested on: IGROV1 ovarian
RXF 393 renal = tested on: RXF 393 renal
MDA-MB-435 = tested on: MDA-MB-435
DU-145 prostate = tested on: DU-145 prostate
SR leukemia = tested on: SR leukemia
OVCAR-4 ovarian = tested on: OVCAR-4 ovarian
SN12C renal = tested on: SN12C renal
NCI/ADR-RES ovarian = tested on: NCI/ADR-RES ovarian
MDA-N = tested on: MDA-N
HOP-92 NSCLC = tested on: HOP-92 NSCLC
SF-268 CNS = tested on: SF-268 CNS
UACC-257 melanoma = tested on: UACC-257 melanoma
PC-3 prostate = tested on: PC-3 prostate
SK-MEL-2 melanoma = tested on: SK-MEL-2 melanoma
ACHN renal = tested on: ACHN renal
HCC-2998 colon = tested on: HCC-2998 colon
HCT-116 colon = tested on: HCT-116 colon
OVCAR-3 ovarian = tested on: OVCAR-3 ovarian
M14 melanoma = tested on: M14 melanoma
SK-MEL-28 melanoma = tested on: SK-MEL-28 melanoma
SW-620 colon = tested on: SW-620 colon
SF-539 CNS = tested on: SF-539 CNS
CCRF-CEM leukemia = tested on: CCRF-CEM leukemia
UO-31 renal = tested on: UO-31 renal
MDA-MB-231 breast = tested on: MDA-MB-231 breast
MALME-3M melanoma = tested on: MALME-3M melanoma
NCI-H460 lung = tested on: NCI-H460 lung
UACC-62 melanoma = tested on: UACC-62 melanoma
KM12 colon = tested on: KM12 colon
SK-OV-3 ovarian = tested on: SK-OV-3 ovarian
OVCAR-5 ovarian = tested on: OVCAR-5 ovarian
U251 CNS = tested on: U251 CNS
SK-MEL-5 melanoma = tested on: SK-MEL-5 melanoma
EKVX NSCLC = tested on: EKVX NSCLC
HOP-62 NSCLC = tested on: HOP-62 NSCLC
BT-549 breast = tested on: BT-549 breast
MOLT-4 leukemia = tested on: MOLT-4 leukemia
RPMI-8226 leukemia = tested on: RPMI-8226 leukemia
SNB-75 CNS = tested on: SNB-75 CNS
MCF7 breast = tested on: MCF7 breast
HS 578T breast = tested on: HS 578T breast
OVCAR-8 ovarian = tested on: OVCAR-8 ovarian
CAKI-1 renal = tested on: CAKI-1 renal

In the case of `COc1ccc(-c2cc(=O)c3c(O)cc(O)cc3o2)cc1OC`, the TGI (SNB-19 CNS) is reported as greater than 100 µM, the TGI (HT29 colon) is reported as greater than 100 µM and the TGI (A498 renal) is reported as 45.2 µM. The TGI (TK-10 renal) was greater than 100 µM, the TGI (LOX IMVI melanoma) was greater than 100 µM and the TGI (NCI-H226 lung) was greater than 100 µM. It also gave a TGI (HCT-15 colon) greater than 100 µM, a TGI (COLO 205 colon) greater than 100 µM and a TGI (A549 NSCLC) greater than 100 µM. For the same molecule, the TGI (K-562 leukemia) was greater than 100 µM, the TGI (SF-295 CNS) was greater than 100 µM and the TGI (NCI-H522 lung) was 59.1 µM. For the same molecule, the TGI (NCI-H23 lung) was greater than 100 µM, the TGI (786-0 renal) was greater than 100 µM and the TGI (T-47D breast) was greater than 100 µM. It also gave a TGI (HL-60(TB) leukemia) greater than 100 µM, a TGI (IGROV1 ovarian) greater than 100 µM and a TGI (RXF 393 renal) greater than 100 µM. For the same molecule, the TGI (MDA-MB-435) was greater than 100 µM, the TGI (DU-145 prostate) was greater than 100 µM and the TGI (SR leukemia) was 33.5 µM. The TGI (OVCAR-4 ovarian) was greater than 100 µM, the TGI (SN12C renal) was greater than 100 µM and the TGI (NCI/ADR-RES ovarian) was greater than 100 µM. It also gave a TGI (MDA-N) greater than 100 µM, a TGI (HOP-92 NSCLC) of 16.4 µM and a TGI (SF-268 CNS) greater than 100 µM. For the same molecule, the TGI (UACC-257 melanoma) was greater than 100 µM, the TGI (PC-3 prostate) was greater than 100 µM and the TGI (SK-MEL-2 melanoma) was greater than 100 µM. It also gave a TGI (ACHN renal) greater than 100 µM, a TGI (HCC-2998 colon) greater than 100 µM and a TGI (HCT-116 colon) greater than 100 µM. The TGI (OVCAR-3 ovarian) was greater than 100 µM, the TGI (M14 melanoma) was greater than 100 µM and the TGI (SK-MEL-28 melanoma) was greater than 100 µM. It also gave a TGI (SW-620 colon) greater than 100 µM, a TGI (SF-539 CNS) greater than 100 µM and a TGI (CCRF-CEM leukemia) greater than 100 µM. For the same molecule, the TGI (UO-31 renal) was greater than 100 µM, the TGI (MDA-MB-231 breast) was greater than 100 µM and the TGI (MALME-3M melanoma) was greater than 100 µM. For the same molecule, the TGI (NCI-H460 lung) was greater than 100 µM, the TGI (UACC-62 melanoma) was greater than 100 µM and the TGI (KM12 colon) was greater than 100 µM. The TGI (SK-OV-3 ovarian) was greater than 100 µM, the TGI (OVCAR-5 ovarian) was greater than 100 µM and the TGI (U251 CNS) was greater than 100 µM. The TGI (SK-MEL-5 melanoma) was greater than 100 µM, the TGI (EKVX NSCLC) was greater than 100 µM and the TGI (HOP-62 NSCLC) was greater than 100 µM. It also gave a TGI (BT-549 breast) greater than 100 µM, a TGI (MOLT-4 leukemia) greater than 100 µM and a TGI (RPMI-8226 leukemia) greater than 100 µM. The TGI (SNB-75 CNS) was 37.1 µM, the TGI (MCF7 breast) was greater than 100 µM and the TGI (HS 578T breast) was greater than 100 µM.

Molecule `Clc1ccccc1/C=C/c1ccnc2ccccc12` has a TGI (SNB-19 CNS) of 31.3 µM, a TGI (HT29 colon) of 29.8 µM and a TGI (A498 renal) of 33.1 µM. For the same molecule, the TGI (TK-10 renal) was 32.1 µM, the TGI (LOX IMVI melanoma) was 35.2 µM and the TGI (NCI-H226 lung) was 33.3 µM. For the same molecule, the TGI (HCT-15 colon) was 28.1 µM, the TGI (COLO 205 colon) was 26.7 µM and the TGI (A549 NSCLC) was 29.9 µM. The TGI (K-562 leukemia) was 38.6 µM, the TGI (SF-295 CNS) was 29.2 µM and the TGI (NCI-H522 lung) was 31.7 µM. For the same molecule, the TGI (NCI-H23 lung) was 27.5 µM, the TGI (786-0 renal) was 29.2 µM and the TGI (T-47D breast) was 30.2 µM. The TGI (HL-60(TB) leukemia) was 45 µM, the TGI (IGROV1 ovarian) was 32.7 µM and the TGI (RXF 393 renal) was 31 µM. The TGI (MDA-MB-435) was 29.2 µM, the TGI (DU-145 prostate) was 29 µM and the TGI (SR leukemia) was 46.8 µM. For the same molecule, the TGI (OVCAR-4 ovarian) was 31.3 µM, the TGI (SN12C renal) was 30.1 µM and the TGI (NCI/ADR-RES ovarian) was 32.9 µM. It also gave a TGI (MDA-N) of 27.7 µM, a TGI (HOP-92 NSCLC) of 24.2 µM and a TGI (SF-268 CNS) of 40.2 µM. It also gave a TGI (UACC-257 melanoma) of 28.5 µM, a TGI (PC-3 prostate) of 30.6 µM and a TGI (SK-MEL-2 melanoma) of 34.2 µM. It also gave a TGI (ACHN renal) of 30.1 µM, a TGI (HCC-2998 colon) of 32.2 µM and a TGI (HCT-116 colon) of 29.1 µM. For the same molecule, the TGI (OVCAR-3 ovarian) was 28 µM, the TGI (M14 melanoma) was 32.1 µM and the TGI (SK-MEL-28 melanoma) was 34.9 µM. For the same molecule, the TGI (SW-620 colon) was 35.6 µM, the TGI (SF-539 CNS) was 34.9 µM and the TGI (CCRF-CEM leukemia) was 50.3 µM. It also gave a TGI (UO-31 renal) of 31 µM, a TGI (MDA-MB-231 breast) of 41.9 µM and a TGI (OVCAR-8 ovarian) of 36.3 µM. For the same molecule, the TGI (MALME-3M melanoma) was 35.4 µM, the TGI (NCI-H460 lung) was 31.7 µM and the TGI (UACC-62 melanoma) was 29 µM. The TGI (KM12 colon) was 31.6 µM, the TGI (SK-OV-3 ovarian) was 32.8 µM and the TGI (OVCAR-5 ovarian) was 34.5 µM. For the same molecule, the TGI (U251 CNS) was 31.4 µM, the TGI (SK-MEL-5 melanoma) was 28.4 µM and the TGI (EKVX NSCLC) was 17.9 µM. The TGI (HOP-62 NSCLC) was 31.9 µM, the TGI (BT-549 breast) was 29 µM and the TGI (RPMI-8226 leukemia) was 36.3 µM. The TGI (SNB-75 CNS) was 29 µM, the TGI (MCF7 breast) was 26.7 µM and the TGI (HS 578T breast) was 53 µM. For the same molecule, the TGI (CAKI-1 renal) was 30.5 µM.

`CCC(N)(C(=O)O)C(C)C` (stereo not drawn) was tested, and the TGI (SNB-19 CNS) was greater than 100 µM, the TGI (HT29 colon) was greater than 100 µM and the TGI (A498 renal) was greater than 100 µM. The TGI (TK-10 renal) was greater than 100 µM, the TGI (LOX IMVI melanoma) was greater than 100 µM and the TGI (NCI-H226 lung) was greater than 100 µM. The TGI (HCT-15 colon) was greater than 100 µM, the TGI (COLO 205 colon) was greater than 100 µM and the TGI (A549 NSCLC) was greater than 100 µM. For the same molecule, the TGI (K-562 leukemia) was greater than 100 µM, the TGI (SF-295 CNS) was greater than 100 µM and the TGI (NCI-H522 lung) was greater than 100 µM. It also gave a TGI (NCI-H23 lung) greater than 100 µM, a TGI (786-0 renal) greater than 100 µM and a TGI (T-47D breast) greater than 100 µM. It also gave a TGI (HL-60(TB) leukemia) greater than 100 µM, a TGI (IGROV1 ovarian) greater than 100 µM and a TGI (RXF 393 renal) greater than 100 µM. It also gave a TGI (MDA-MB-435) greater than 100 µM, a TGI (DU-145 prostate) greater than 100 µM and a TGI (SR leukemia) greater than 100 µM. For the same molecule, the TGI (OVCAR-4 ovarian) was greater than 100 µM, the TGI (SN12C renal) was greater than 100 µM and the TGI (NCI/ADR-RES ovarian) was greater than 100 µM. For the same molecule, the TGI (MDA-N) was greater than 100 µM, the TGI (HOP-92 NSCLC) was greater than 100 µM and the TGI (SF-268 CNS) was greater than 100 µM. It also gave a TGI (UACC-257 melanoma) greater than 100 µM, a TGI (PC-3 prostate) greater than 100 µM and a TGI (SK-MEL-2 melanoma) greater than 100 µM. It also gave a TGI (ACHN renal) greater than 100 µM, a TGI (HCC-2998 colon) greater than 100 µM and a TGI (HCT-116 colon) greater than 100 µM. For the same molecule, the TGI (OVCAR-3 ovarian) was greater than 100 µM, the TGI (M14 melanoma) was greater than 100 µM and the TGI (SK-MEL-28 melanoma) was greater than 100 µM. It also gave a TGI (SW-620 colon) greater than 100 µM, a TGI (SF-539 CNS) greater than 100 µM and a TGI (CCRF-CEM leukemia) greater than 100 µM. The TGI (UO-31 renal) was greater than 100 µM, the TGI (MDA-MB-231 breast) was greater than 100 µM and the TGI (OVCAR-8 ovarian) was greater than 100 µM. It also gave a TGI (MALME-3M melanoma) greater than 100 µM, a TGI (NCI-H460 lung) greater than 100 µM and a TGI (UACC-62 melanoma) greater than 100 µM. It also gave a TGI (KM12 colon) greater than 100 µM, a TGI (SK-OV-3 ovarian) greater than 100 µM and a TGI (OVCAR-5 ovarian) greater than 100 µM. The TGI (U251 CNS) was greater than 100 µM, the TGI (SK-MEL-5 melanoma) was greater than 100 µM and the TGI (EKVX NSCLC) was greater than 100 µM. It also gave a TGI (HOP-62 NSCLC) greater than 100 µM, a TGI (BT-549 breast) greater than 100 µM and a TGI (RPMI-8226 leukemia) greater than 100 µM. It also gave a TGI (SNB-75 CNS) greater than 100 µM, a TGI (MCF7 breast) greater than 100 µM and a TGI (HS 578T breast) greater than 100 µM. For the same molecule, the TGI (CAKI-1 renal) was greater than 100 µM.
